According to patent publication EP4740932A2, “COSMETIC COMPOSITION FOR SKIN IMPROVEMENT AND PHARMACEUTICAL COMPOSITION FOR PREVENTING OR TREATING SKIN DAMAGE, EACH CONTAINING HONOKIOL AND POLYOL” (Cosmax, Inc., priority 2023, dated 2025):

Legend:
COL1A1 = assay: qRT-PCR of collagen production promotion factor in UVB-irradiated Hs68 cells; type: cell-based; conditions: Hs68, UVB 25 mJ/cm^2, 1 ppm, 24 hours; relative to UVB non-irradiated group; compared with RA, EGCG, retinol
AQP3 = assay: qRT-PCR of moisture migration factor in HaCaT cells; type: cell-based; conditions: 24 hours
Description: (§1) Specifically, HaCaT cells, which are skin stratum corneum cells, were treated with retinol and honokiol at 0.1 and 1 ppm, respectively, for 24 hours.
(§2) The mRNA expression levels of the AQP3 gene, which is a factor related to the migration of moisture present in the dermis, and the HAS3 gene, which is a factor related to hyaluronic acid synthase, were then measured through qRT-PCR analysis, and the β-actin expression levels were converted and compared.

[1] = HPLC potency analysis after storage; type: physicochemical; conditions: harsh environments of low temperature, high temperature, and cycle
Description: Honokiol was dissolved in BG and MCT at a concentration of 5 wt %, and high-performance liquid chromatography (HPLC) was performed to observe whether precipitates were formed at 4°C, 25°C, 45°C, 50°C, and sunlight, and to analyze potency.

[2] = Solvent selection: dissolving 5 wt % honokiol in water, BG, MCT; type: physicochemical
Source text: Honokiol is a poorly soluble component and has low solubility in water, so it has the property of being dissolved in an organic solvent. To stabilize the cosmetic composition including honokiol at a high concentration of 5 wt %, three types of solvents corresponding to water, Butylene Glycol (BG), and medium-chain triglyceride (MCT) oil were applied to confirm the result.

Hs68 cells = assay: MTT cytotoxicity evaluation on skin dermis cells; type: cell-based; conditions: Hs68 (skin dermis cells), 0.1, 0.5, 1 and 5 ppm, 24 hours, at concentrations of 5 ppm or less
Description: (§3) Toxicity assessments of honokiol on skin epidermis and dermal cells were performed. Specifically, HaCaT cells, which are skin keratinocytes, and Hs68 cells, which are skin dermis cells, were cultured in a 96 well plate at a concentration of 2 X […] and cultured in a medium including FBS ([…]) and antibiotics (Antibiotic antibiotic) at 37°C and 5% CO2 for 24 hours, and then further cultured by treating the medium including only antibiotics with 0.1, 0.5, 1, and 5 ppm for each concentration on the next day. After 24 hours, the toxic concentration of the honokiol material on skin cells was determined by replacing it with medium containing MTT tetrazolum (Sigma-aldrich, St. Lous, USA) and by reacting at 37°C for 4 hours to evaluate the cellular metabolic activity.

TSLP = assay: qRT-PCR of inflammation-related factor in Poly I:C/IL-4 stimulated HaCaT cells; type: cell-based; conditions: 10 µg/ml Poly I:C and 10 µg/ml IL-4, 1 ppm, 4 hours
Description: Specifically, HaCaT cells, which are skin stratum corneum cells, were treated (+) with 10 µg/ml of Poly I:C and 10 µg/ml of IL-4 protein, which are inflammatory response inducing substances, and prepared as an experimental group in which 1 µM (Dexa) of dexamethasone (DEXA), retinol, and honokiol, which are […], were treated for 4 hours at 0.1 and 1 ppm, respectively. The untreated group (-) was prepared as a negative control.
Afterwards, the expression level of the TSLP gene, an inflammation-related factor expressed in skin keratinocytes, was measured through qRT-PCR analysis, converted based on the expression level of ectin, and compared.

ELN1 = assay: qRT-PCR of elastin production factor in UVB-irradiated Hs68 cells; type: cell-based; conditions: Hs68, UVB 25 mJ/cm^2, 1 ppm, 24 hours; compared with RA, EGCG, retinol
Description: (§4) Specifically, Hs68 cells, which are skin dermal layer cells, were irradiated with UVB (ultraviolet-B) having a 25 mJ/cm^2 intensity, and then treated with RA, EGCG, retinol, and honokiol, 1 ppm each, for 24 hours.
(§5) The mRNA expression levels of ELN1, a factor associated with elastin production promotion, and FBN, a factor associated with fibronectin production promotion, were then measured using qRT-PCR analysis, and the levels of actin expression from the UVB non-irradiated group were converted and compared.

filaggrin (FLG) = assay: qRT-PCR of filaggrin in HaCaT cells; type: cell-based; conditions: 24 hours
Description: as §1
(§6) Subsequently, through qRT-PCR analysis, the mRNA expression of filaggrin (FLG), a moisturizing component-related factor present in keratinocytes constituting the skin barrier, and the CLDN1 gene, a factor related to the binding of the skin barrier, were measured and compared based on the β-actin expression level.

MMP-1 = assay: qRT-PCR of collagen degradation enzyme factor in UVB-irradiated Hs68 cells; type: cell-based; conditions: Hs68, UVB 25 mJ/cm^2, 1 ppm, 24 hours; relative to UVB non-irradiated group
Description: It was determined whether honokiol increases the amount of skin collagen. Specifically, Hs68 cells, which are skin dermal layer cells, were irradiated with 25 mJ/cm^2 intensity of UVB (ultraviolet B), and then treated with RA (retinoic acid), EGCG (epigallocatechin gallate), retinol, and honokiol at a concentration of 1 ppm for 24 hours, respectively.
The mRNA expression of the collagen production promotion factor COL1A1 and the collagen degradation enzyme factor MMP-1 gene was measured through qRT-PCR analysis and converted based on the actin expression, and the relative values for the expression of the UVB non-irradiated group were calculated and compared.
The collagen production amount was compared in the same manner as in Example 2-1, and the treatment sample was changed to a honokiol solution dissolved in RA (retinoic acid), retinol, DMSO (dimethyl sulfoxide), a honokiol solution dissolved in BG, and a honokiol solution dissolved in PG (propylene glycol).
In Example 2-1, a 5% (w/w) solution was prepared as a sample to confirm stability in a high concentration dissolved state, whereas a honokiol solution for treating cells was prepared at a concentration of 1 mg/ml, and the honokiol alone component treated in cells was performed to be 1 ppm.

[3] = DPPH test of antioxidant activity; type: biochemical; conditions: 10 and 100 ppm, room temperature, 30 minutes; compared to retinol
Description: It was confirmed by the DPPH test whether honokiol exerts antioxidant activity.
Specifically, the DPPH solution was treated with Ascorbic Acid (AA), retinol, and honokiol at 10 and 100 ppm, respectively, at room temperature for 30 minutes. The absorbance was measured at 517 nm to show antioxidant activity as the ratio of the decrease in absorbance to the control. At this time, ascorbic acid, an antioxidant, was used as a control group for determining the absorbance reduction ratio.

HaCaT cells = assay: MTT cytotoxicity evaluation on skin keratinocytes; type: cell-based; conditions: HaCaT (skin stratum corneum cells), 0.1, 0.5, 1 and 5 ppm, 24 hours, at concentrations of 5 ppm or less
Description: as §3

CLDN1 = assay: qRT-PCR of skin barrier binding factor in HaCaT cells; type: cell-based; conditions: 1 ppm, 24 hours, versus control group
Description: as §1, §6

HAS3 = assay: qRT-PCR of hyaluronic acid synthase factor in HaCaT cells; type: cell-based; conditions: 24 hours
Description: as §1, §2

FBN = assay: qRT-PCR of fibronectin production factor in UVB-irradiated Hs68 cells; type: cell-based; conditions: Hs68, UVB 25 mJ/cm^2, 1 ppm, 24 hours; compared with RA, EGCG, retinol
Description: as §4, §5

[4] = 0.1 and 1 ppm, overall versus retinol

- potency maintenance (stability of the material) [1]: maintained its potency well
- solubility ([2]; 5 wt % honokiol in BG): well soluble
- solubility ([2]; 5 wt % honokiol in MCT): well soluble
- solubility ([2]; 5 wt % honokiol in water): low
SMILES: C=CCc1ccc(O)c(-c2ccc(O)c(CC=C)c2)c1 [honokiol]
- COL1A1 mRNA expression (collagen production) (COL1A1): higher collagen production than the UVB-only irradiated group, and showed the highest collagen production among all UVB irradiated groups
- AQP3 mRNA expression level (AQP3; [4]): higher overall expression than the retinol-treated group
- AQP3 mRNA expression level (AQP3; 1 ppm): significantly increased the expression of related genes
- cytotoxicity (Hs68 cells): did not cause cytotoxicity
- TSLP gene expression amount (TSLP): significantly reducing the expression amount of the TSLP gene
- ELN1 mRNA expression level (ELN1): highest expression level among the UV-irradiated groups but also showed a higher expression level than the UV-unirradiated group
- FLG mRNA expression (filaggrin (FLG); [4]): higher expression than the retinol-treated group overall
- FLG mRNA expression (filaggrin (FLG); 1 ppm): significantly increased the expression of the FLG gene
- MMP-1 mRNA expression (collagen degrading enzyme production) (MMP-1): lower amount of collagen degrading enzyme production than the UVB-only irradiation group
- antioxidant activity (DPPH, decrease in absorbance at 517 nm) [3]: remarkably high antioxidant activity compared to retinol
- cytotoxicity (HaCaT cells): did not cause cytotoxicity
- CLDN1 mRNA expression level (CLDN1): significantly increased the expression level of the CLDN1 gene compared to that of the control group
- HAS3 mRNA expression level (HAS3; [4]): higher overall expression than the retinol-treated group
- HAS3 mRNA expression level (HAS3; 1 ppm): significantly increased the expression of related genes
- FBN mRNA expression level (FBN): highest expression level among the UV-irradiated groups but also showed a higher expression level than the UV-unirradiated group
